Assay results as given in US20090286740A1, “PEPTIDES AND DERIVATIVES THEREOF, THE MANUFACTURING THEREOF AS WELL AS THEIR USE FOR PREPARING A THERAPEUTICALLY AND/OR PREVENTIVELY ACTIVE PHARMACEUTICAL COMPOSITION” (FIBREX MEDICAL RESEARCH & DEVELOPMENT GMBH, priority 2008, published 2009).
Where no end group is shown, it is not given here.

T1: vascular endothelial (VE) cadherin (human, UniProt P33151 48-784)
T1 sequence (looked up): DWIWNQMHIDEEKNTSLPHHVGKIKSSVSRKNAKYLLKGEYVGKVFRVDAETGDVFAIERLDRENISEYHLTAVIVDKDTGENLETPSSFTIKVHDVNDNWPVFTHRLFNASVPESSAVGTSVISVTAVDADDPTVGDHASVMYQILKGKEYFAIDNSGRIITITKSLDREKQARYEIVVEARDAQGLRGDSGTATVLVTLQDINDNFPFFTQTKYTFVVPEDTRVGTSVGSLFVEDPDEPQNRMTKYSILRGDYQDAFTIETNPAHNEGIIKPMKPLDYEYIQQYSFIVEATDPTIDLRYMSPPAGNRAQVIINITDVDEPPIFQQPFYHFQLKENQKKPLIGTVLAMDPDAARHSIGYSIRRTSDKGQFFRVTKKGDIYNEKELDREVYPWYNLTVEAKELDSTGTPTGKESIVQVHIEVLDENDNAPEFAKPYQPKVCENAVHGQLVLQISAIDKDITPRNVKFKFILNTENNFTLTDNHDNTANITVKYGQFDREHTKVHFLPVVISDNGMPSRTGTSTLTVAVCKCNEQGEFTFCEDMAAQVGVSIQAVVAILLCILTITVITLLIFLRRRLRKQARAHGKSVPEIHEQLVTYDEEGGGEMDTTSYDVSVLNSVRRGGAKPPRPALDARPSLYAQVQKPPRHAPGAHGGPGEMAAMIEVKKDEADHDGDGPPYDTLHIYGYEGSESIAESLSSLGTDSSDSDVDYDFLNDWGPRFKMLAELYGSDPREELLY

B1: Gly-His-Arg-Pro-Leu-Ala-Pro-Ser-Leu-Arg-Pro-Ala-Pro-Pro-Pro-Ile-Ser-Gly-Gly-Gly-Tyr-Arg-OH (peptide)
peptide: GHRPLAPSLRPAPPPISGGGYR-OH

Tests used:
RhoA = assay: thrombin induced RhoA activation in HUVEC culture (active RhoA pull-down, blot); format: cell-based, human; details: 5 U/ml thrombin alone, 5 min
Protocol: The biological effect of the compounds was established in a model thrombin induced RhoA activation in human umbilical vein endothelial cell (HUVEC) culture.
HUVEC are grown to confluence under standard conditions. Before induction of Rho activity HUVEC were starved for 4 h by using IMDM (Gibco) without growth factor and serum supplements. After the starvation period 5 U/ml Thrombin (Calbiochem) or 5 U thrombin plus 50 μg/ml of test compound are added to the starvation medium for 1, 5 and 10 min. Active RhoA was isolated using Rho Assay Reagent from Upstate according to manufactures instructions. Isolates were separated on a 15% polyacrylamid gel and blotted on Nitrocellulose-Membrane (Bio-Rad). RhoA was dedected by using Anti-Rho (-A, -B, -C), clone55 from Upstate (1:500).

[1] = biological target: T1, vascular endothelial (VE) cadherin; assay: cell-based or functional assay

Row | Molecule | Relative RhoA stimulation compared to unstimulated control (RhoA) | Relative RhoA stimulation compared to unstimulated control (thrombin-induced RhoA activation in HUVEC, Rho pull-down and blot; thrombin alone 5 min = 2.6) [1]
1 | thrombin | 2.6 | –
2 | B1 | – | 1.2 fold relative to unstimulated control
